Laboratory results: patent US11219580B2, “Oral composition” (Andalay Technologies Limited, priority 2016, dated 2022)
Like-named read-outs stand apart in the source and are kept apart here.

Assays:
[1] = Dissolution Test 2: release of active ingredients from sports-gel style mouthwash (protocol 1B) under simulated mastication, QTOF-UHPLC; assay type: physicochemical; details: for release profile from sports-gel style mouthwash: 10 g mouthwash of protocol 1B in 100 mL stirred water at 37° C., samples 10-600 s, FIGS. 7-11; for relative release profile, order of release: protocol 1B mouthwash, peak-normalised plots, FIG. 12
Protocol: A sports-gel style mouthwash was prepared according to protocol 1B described above. In order to measure the release of the active ingredients from the mouthwash, it was necessary to recreate the mastication conditions of the mouth. The following protocol was employed for this purpose: • i. Whilst stirring with a 3.5 cm magnetic stirrer set at the “7” rotation setting, heat 100 mL of water to 37° C. in a beaker. • ii. Aspirate 1 mL of solution using a pipette to obtain a standard sample. • iii. Add 10 g of the sports-gel style mouthwash prepared according to protocol 1B to the heated water. • Aspirate 1 mL of the resultant solution at time intervals of t=10, 20, 40, 60, 90, 120, 150, 180, 210, 240, 270, 300, 360 and 600 seconds, ensuring that the samples are taken from the outermost rim of the beaker.
Prior to mass spectrometry analysis, the samples and standards obtained were diluted 1 part in 10 in acetonitrile (ACN). All concentrations given below for the calibration are of these diluted solutions.
All samples and calibration standards were injected in the following order: triplicate injections of full calibration standards from low to high concentration, triplicate injection of acetonitrile blank, triplicate injection of sample series B in timeline sequence (each with a single blank in between), single injection of full calibration standards from low to high concentration, triplicate injection of blank acetonitrile, triplicate injection of sample series B in timeline sequence (each with a single blank in between). The reason for the second, shorter, series of calibration standards was to determine if there was any significant decrease in sensitivity (indicated by decrease in peak area) during the batch.
The QTOF-UHPLC analysis was conducted using a MaXis HD quadrupole electrospray time-of-flight (ESI-QTOF) mass spectrometer (Bruker Daltonik GmbH, Bremen, Germany) operated in ESI positive-ion MS mode. The QTOF was coupled to an Ultimate 3000 UHPLC (Thermo Fisher Scientific, California, USA). The capillary voltage was set to 4500 V, nebulising gas at 2 bar, drying gas at 10 L/min at 200° C. The TOF scan range was from 50-750 mass-to-charge ratio (m/z). For effective transmission of ions the ion energy was set to 1.0 eV with the collision energy for TOF MS acquisition at 2.0 eV. Liquid chromatography was performed using a Kinetex […], 2.1×100 mm HILIC column (Phenomenex) with a flow rate of 0.4 mL/min at 30° C. and an injection volume of 10 μL. Mobile phases A and B consisted of 50:50 ACN:H2O with 0.2% v/v formic acid and 10 mM ammonium formate, and 95:5 ACN:H2O with 0.2% v/v formic acid and 10 mM ammonium formate, respectively. Gradient elution was carried out with 100% mobile phase B until 2 min followed by a linear gradient to 0% B at 12 mins, keeping 0% B up until 15 mins, thereafter returned to 100% B until in 20 mins total run time. The MS instrument was calibrated using a range of sodium formate clusters introduced by 10 μL loop-injection prior to the chromatographic run. The mass calibrant solution consisted of 3 parts of 1 M NaOH to 97 parts of 50:50 water:isopropanol with 0.2% formic acid. The observed mass and isotope pattern perfectly matched the corresponding theoretical values as calculated from the expected elemental formula. Most of the target compounds were detected as [M+H]^+ and [M+Na]^+ ions. Data processing was performed using the Data Analysis software version 4.3 (Bruker Daltonik GmbH, Bremen, Germany). Quantification was carried out using the peak area in the extracted ion chromatogram (EIC) of the sum of the protonated and sodiated ion of the target compound.
Using the mass spectrometry data obtained, it is possible evaluate the release profiles of the active ingredients present in the sports-gel style mouthwash under simulated mastication conditions.

rat = details: cited from earlier work

Molecule	release profile from sports-gel style mouthwash [1]	relative release profile, order of release [1]	LD50 rat (rat; in vivo)	LD50 rat (rat)
CC12CCC(CC1)C(C)(C)O2 [Eucalyptol]	reaches its maximum concentration significantly later than, for example, the glycerol or sorbitan monolaurate	follow the release of the surfactant		
OCC(O)CO [Glycerine, glycerol]	immediately releases into the surrounding solution and reaches its effective concentration within seconds	released immediately upon commencing mastication	12,600 mg/kg	
CC1CCC(C(C)C)C(O)C1 (centres unmarked) [Menthol]			3,300 mg/kg	
O=[N+]([O-])[O-].[K+] [Potassium nitrate]				3,750 mg/kg
Cc1ccc(C(C)C)c(O)c1 [Thymol]	reaches its maximum concentration at a later stage of mastication			
O [Water]				90,000 mg/kg
OC[C@@H](O)[C@H](O)[C@@H](O)CO [Xylitol]	released quickly	follow the release of the surfactant	16,500 mg/kg	
Sorbitan monolaurate	fast release	the next active ingredient to reach an effective concentration		
